Results from EPA's ToxValDB 9.5.
Each block holds one molecule with its values, some of them ahead of it.

Columns and labels:
Rattus norvegicus [1] = settings: oral
Rattus norvegicus [2] = settings: oral, gavage; for LOAEL / NOAEL: Sprague-Dawley
[3] = short-term, duration: 28 days, gavage, M, Sprague-Dawley, Clinical Observation: Yellow-orange urine SalivationSpontaneous locomotion decrease, Respiratory rate decrease, Soft stool + Body Weight …
[4] = reproduction developmental, duration: 4 weeks, M, Rjhan:SD, generation: P0, P0: Whole Body: Clinical Observations
[5] = reproduction developmental, duration: 4 weeks, M, generation: P0, P0: General Toxicity: Whole Body: Body Weight + P0: General Toxicity: Whole Body: Clinical Observations + P0: General Toxicity: Whole Body: …
[6] = reproduction developmental, duration: 6 weeks, F, Rjhan:SD, generation: P0, P0: Whole Body: Clinical Observations
[7] = reproduction developmental, duration: 54 days, F, generation: P0, P0: General Toxicity: Whole Body: Body Weight + P0: General Toxicity: Whole Body: Clinical Observations + P0: General Toxicity: Whole Body: …

Compound: COc1ccccc1[N+](=O)[O-] [1-Methoxy-2-nitrobenzene]
NOAEL (Rattus norvegicus [1]; [3]): 80 mg/kg-day | NOEL (Rattus norvegicus [1]; [3]): 80 mg/kg-day | NOEL (Rattus norvegicus [1]; subchronic, duration: 13 weeks, diet, M/F, Fischer 344, Deaths + Body Weight Changes: decrease + Food Consumption: decrease + Hematology: Ret increase, Hct decrease, Hgb decrease, RBC decrease, …): < 19.2 mg/kg-day

Compound: CC(=O)C(C)=O [2,3-Butanedione]
NOEL (Rattus norvegicus [1]; subchronic, duration: 90 days, gavage, M/F, CFE, Body Weight Changes: decrease + Water Consumption: increase + Hematology: HGB decrease, HCT decrease, RET increase, WBC increase, NEUT …): 90 mg/kg-day

Compound: N#CSCSC#N [Methylene bis(thiocyanate)]
NOEL (Rattus norvegicus [1]; subchronic, gavage, F, Fischer 344, Deaths + Clinical Observation: Abnormal respiratory sounds Reddish tear Hunched posture Dyspnea + Hematology: Hct decrease, Hgb decrease, …): 2 mg/kg-day | NOEL (Rattus norvegicus [1]; subchronic, gavage, M, Fischer 344, Deaths + Clinical Observation: Abnormal respiratory sounds Reddish tear Hunched posture Dyspnea + Hematology: Hct decrease, Hgb decrease, …): 1 mg/kg-day

LEL (Rattus norvegicus [2]; [4]): 300 mg/kg-day | NEL (Rattus norvegicus [2]; [4]): 100 mg/kg-day | NEL (Rattus norvegicus [2]; reproduction developmental, duration: 6 weeks, F, Rjhan:SD, generation: P0, P0: Multi-organ: Histopathology, Unspecified + P0: Multi-organ: Organ Weights, Unspecified + P0: Ovary: Corpora Lutea + P0: Uterus: …): 1000 mg/kg-day | LEL (Rattus norvegicus [2]; [6]): 1000 mg/kg-day | NEL (Rattus norvegicus [2]; [6]): 300 mg/kg-day | NEL (Rattus norvegicus [2]; short-term, duration: 28 days, F, Crj:CD, Adrenal: Adrenal Gland Weight, Absolute + Adrenal: Adrenal Gland Weight, Absolute, Recovery + Adrenal: Adrenal Gland Weight, Relative + …): 1000 mg/kg-day | LEL (Rattus norvegicus [2]; short-term, duration: 28 days, F, Crj:CD, Blood: Platelet Count (PLT) + Blood: Total Protein (TP), Blood + Forestomach: Boundary Ridge Protrusion + Kidney: Pyelectasis + Stomach: …): 1000 mg/kg-day | NEL (Rattus norvegicus [2]; short-term, duration: 28 days, F, Crj:CD, Blood: Platelet Count (PLT) + Blood: Total Protein (TP), Blood + Forestomach: Boundary Ridge Protrusion + Stomach: Glandular Stomach, …): 200 mg/kg-day | NEL (Rattus norvegicus [2]; short-term, duration: 28 days, M, Crj:CD, Adrenal: Adrenal Gland Weight, Absolute + Adrenal: Adrenal Gland Weight, Absolute, Recovery + Adrenal: Adrenal Gland Weight, Relative + …): 1000 mg/kg-day | LEL (Rattus norvegicus [2]; short-term, duration: 28 days, M, Crj:CD, Blood: Albumin/Globulin (A/G) Ratio, Recovery + Blood: Calcium (CA), Recovery, Blood + Blood: Chloride (CL), Recovery, Blood + Forestomach: …): 1000 mg/kg-day | NEL (Rattus norvegicus [2]; short-term, duration: 28 days, M, Crj:CD, Forestomach: Boundary Ridge Protrusion): 200 mg/kg-day
Compound: O=S(=O)(O)C(F)(F)F [Trifluoromethanesulfonic acid]
LOAEL (Rattus norvegicus [2]; developmental, duration: 54 days, M/F, generation: F1, F1: Developmental: Whole Body: Dams with Liveborn Pups + F1: Developmental: Whole Body: Lactation Index + F1: Developmental: Whole Body: …): 300 mg/kg-day | NEL (Rattus norvegicus [2]; reproduction developmental, duration: 4 weeks, M, Rjhan:SD, generation: P0, P0: Multi-organ: Histopathology, Unspecified + P0: Multi-organ: Organ Weights, Unspecified + P0: Whole Body: Body Weight, Absolute + P0: …): 1000 mg/kg-day | LOAEL (Rattus norvegicus [2]; [5]): 300 mg/kg-day | NOAEL (Rattus norvegicus [2]; [5]): 100 mg/kg-day | NOAEL (Rattus norvegicus [2]; reproduction developmental, duration: 4 weeks, M, generation: P0, P0: Whole Body: Whole Body: Histopathology, Unspecified): 1000 mg/kg-day | NEL (Rattus norvegicus [2]; reproduction developmental, duration: 6 weeks, M/F, Rjhan:SD, generation: F1, F1: Whole Body: Body Weight, Absolute + F1: Whole Body: Clinical Observations + F1: Whole Body: Dams with Liveborn Pups + F1: Whole Body: …): 1000 mg/kg-day | LOAEL (Rattus norvegicus [2]; reproduction developmental, duration: 54 days, F, generation: P0, P0: Developmental: Uterus: Implantation + P0: Developmental: Uterus: Post-Implantation Loss + P0: Developmental: Uterus: Pre-Implantation …): 300 mg/kg-day | LOAEL (Rattus norvegicus [2]; [7]): 300 mg/kg-day | NOAEL (Rattus norvegicus [2]; [7]): 100 mg/kg-day
